From paper PMC8954547, “Nonpeptidic Z360-Analogs Tagged with Trivalent Radiometals as Anti-CCK2R Cancer Theranostic Agents: A Preclinical Study” (Pharmaceutics, 2022)
*1 amine or outer side, *2 acyl side, *3 side chain or, on linkers, in order; H or OH if unused. Where a SMILES comes first, the peptide text is derived from it. [ ]: non-standard residue; d: D form. The star is where a group is joined. X1 = CC(C)(C)C(=O)CN1C(=O)[C@H](N*)CN(C2CCCCC2)c2ccccc21; pGlu = O=C1CC[C@@H](C(=O)O)N1; PEG3 = NCCOCCOCCOCCC(=O)O; 3Abz = Nc1cccc(C(=O)O)c1; X2 = NCCNCC(CNCCN)C(=O)*; CO = O=C([*:1])[*:2]

Experiments:
[1] = target: T1, human CCK2i4svR splice variant (Homo sapiens, UniProt P32239); test: Competition binding against [125I][I-Tyr12,Leu15]gastrin-17 in HEK293-CCK2i4svR cell membranes; details: vs [125I][I-Tyr12,Leu15]gastrin-17, HEK293-CCK2i4svR cell membranes, 1 h 22 °C; mean ± SD
T1 construct: expressed in transfected cells; membrane homogenates
T1 sequence (P32239 1-516 isoform P32239-2): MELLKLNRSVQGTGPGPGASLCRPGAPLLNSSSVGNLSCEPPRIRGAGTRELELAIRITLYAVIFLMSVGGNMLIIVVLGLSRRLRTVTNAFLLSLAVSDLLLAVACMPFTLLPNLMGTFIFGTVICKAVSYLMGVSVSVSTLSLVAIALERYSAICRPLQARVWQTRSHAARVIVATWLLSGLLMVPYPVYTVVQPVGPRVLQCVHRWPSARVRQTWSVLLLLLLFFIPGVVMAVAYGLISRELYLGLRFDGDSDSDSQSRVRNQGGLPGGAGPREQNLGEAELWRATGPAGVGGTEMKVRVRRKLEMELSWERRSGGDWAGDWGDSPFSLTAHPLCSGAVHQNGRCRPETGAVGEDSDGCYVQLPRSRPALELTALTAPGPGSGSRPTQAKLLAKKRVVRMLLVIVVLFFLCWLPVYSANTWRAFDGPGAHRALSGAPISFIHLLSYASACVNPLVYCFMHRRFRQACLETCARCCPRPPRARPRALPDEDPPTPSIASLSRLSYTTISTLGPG
Method: Competition binding assays for the metal-free GAS1/2/3 and the corresponding metal-tagged [^natGa]Ga/[^natIn]In/[^natLu]Lu-GAS1/3 and [^natGa]Ga/[^natIn]In-GAS2 analogs were conducted against the [^125I][I-Tyr^12,Leu^15]gastrin-17 radioligand in membrane homogenates harvested from HEK293-CCK2i4svR cells, as previously described. Briefly, each of the above analogs, or unmodified Z360 serving as control, was incubated in triplicates of increasing concentrations (10^−13–10^−6 M) with [^125I][I-Tyr^12,Leu^15]gastrin-17 (50 pM, ≈40,000 cpm) and membrane homogenate in binding buffer (300 µL, pH 7.4, 50 mM HEPES, 1% BSA, 5.5 mM MgCl2, 35 µM bacitracin) for 1 h at 22 °C. Incubation was interrupted by rapid filtration through glass fiber filters (Whatman GF/B, presoaked in binding buffer for at least 1 h) on a Brandel Cell Harvester (Adi Hassel Ingenieur Büro, Munich, Germany) and subsequent rinsing with ice-cold washing buffer (10 mM HEPES pH 7.4, 150 mM NaCl). The radioactivity content of individual filters was measured in a gamma counter (automated multi-sample well-type instrument with a NaI(Tl) 3′ crystal, Canberra Packard Cobra^TM Quantum U5003/1, Auto-Gamma® counting system). The 50% inhibitory concentration (IC50) was determined by nonlinear regression analysis according to a one-site model using PRISM 6 (Graph Pad Software, San Diego, CA, USA). Values are expressed as mean ± standard deviation (SD) of three independent experiments performed in triplicate.

human CCK2R [2] = target: T2, human CCK2R (Homo sapiens, UniProt P32239); test: FRET-based Ca2+ mobilization assay in HEK293-hCCK2R/YC3.60 cells; format: cell-based
T2 construct: host or cells: HEK293 clone #21 (HEK293-hCCK2R/YC3.60), stably co-expressing the Ca2+ biosensor YC3.60
T2 sequence (P32239 1-447): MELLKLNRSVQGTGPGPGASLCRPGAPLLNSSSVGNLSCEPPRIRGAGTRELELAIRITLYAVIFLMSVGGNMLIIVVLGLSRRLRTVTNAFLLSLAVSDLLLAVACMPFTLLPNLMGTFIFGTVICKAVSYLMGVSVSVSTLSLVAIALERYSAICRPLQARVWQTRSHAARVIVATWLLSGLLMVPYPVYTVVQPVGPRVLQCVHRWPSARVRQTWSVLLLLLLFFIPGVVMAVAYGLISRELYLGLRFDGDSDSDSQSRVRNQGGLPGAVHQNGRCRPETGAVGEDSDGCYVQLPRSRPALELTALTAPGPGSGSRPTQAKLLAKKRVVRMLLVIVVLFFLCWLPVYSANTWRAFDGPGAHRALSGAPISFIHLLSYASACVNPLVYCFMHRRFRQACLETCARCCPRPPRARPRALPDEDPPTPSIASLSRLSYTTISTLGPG
Method: For most biological experiments, HEK293 cells transfected to stably express the human CCK2i4svR splice variant were used, kindly provided by Dr. P. Laverman (Radboud University Nijmegen Medical Center, Nijmegen, The Netherlands) and Prof. M. R. Hellmich (University of Texas Medical Branch, Galveston, TX, USA), while non-transfected wtHEK293 cells served as negative controls. Cells were cultured in DMEM with GlutaMAX-I supplemented with 10% (v/v) fetal bovine serum (FBS), 100 U/mL penicillin and 100 μg/mL streptomycin and kept in a controlled humidified air containing 5% CO2 at 37 °C; the medium for transfected cells was additionally supplemented with 400 μg/mL G418. All culture media were purchased from Gibco BRL, Life Technologies (Grand Island, NY, USA) and supplements were supplied by Biochrom KG Seromed (Berlin, Germany). For Ca^2+-mobilization assays, HEK293 cell clones (generated by O.G. Chepurny in the G.G. Holz laboratory) were transfected to stably co-express either both the human CCK2R and the Ca^2+ biosensor YC3.60 (clone #21) or only YC3.60 (clone #5, negative controls devoid of CCK2R expression) (Supplementary File). Ca^2+ mobilization assays were conducted by FRET-based detection of Ca^2+ in HEK293-hCCK2R/YC3.60 and HEK293-YC3.60 cells (negative controls) for GAS1/2/3 as well as for DG2, [Leu^15]gastrin-17 and Z360 (controls), as outlined in the Supplementary File. […]
Table S2. Analytical HPLC Data for (Radio)Metal-Tagged GAS1/2/3 (tR (min) gamma/UV trace). compound - [67Ga]Ga/[natGa]Ga [111In]In/[natIn]In [177Lu]Lu/[natLu]Lu […]
(§1) Purity as determined by HPLC exceeded 97% in all cases. system 1 was applied: RP-HPLC with twin UV detection at 220 nm and gamma detection; a Symmetry Shield RP18 column (5 μm, 3.9 mm × 150 mm) was eluted at a flow rate of 1 mL/min with linear gradient: 100%A/0% B to 70%A/30% B in 5 min and then 70%A/30% B to 55%A/45% B in 60 min, with A = 0.1% TFA in H2O (v/v) and B = MeCN.
Preparation of [natGa]Ga-GAS1/2/3, [natIn]In-GAS1/2/3 and [natLu]Lu-GAS1/3 To an Eppendorf Protein LoBind® centrifuge tube containing GAS1/2/3 precursor stock solution (60 μL, 120 μg, ≈60 nmol), a stock solution (60 μL, 2 mM, 120 nmol) of the respective nitrate salt dissolved in 1 M sodium acetate buffer of pH 4.0 (for gallium), 4.6 (for indium) and 5.0 (for lutetium) was added. The mixture was heated at 75 °C for 1 h. […]
action mixture using HPLC system 1, allowing for base line separation of metal-tagged from metal-free GAS1/2/3. Retention times (UV trace, tR in min) of all GAS species were included in Table S2. The metal-tagged GAS solutions were used as such in in vitro com-petition binding assays assuming a 0.5 mM CCK2R-ligand concentration.
Methods for FRET-based detection of Ca2+ in HEK293 cells were descri bed previ ousl y. The clone #21 HEK293 cell line (HEK293-hCCK2R/YC3.60) stably co-expressing the human CCK2R and the Ca2+ biosensor YC3.60 was generated a ccording to published methods. The clone #5 HEK293 cell line (HEK293-YC3.60) that expressed only YC3.60 served as a negative control and was generated in a similar matter. […] The human CCK2R (NM_176875) in pCMV6-Entry vector contained the receptor’s complete open reading frame with a Myc-DDK epitope tag (OriGene Technologies; Cat. No. R200676). Test compounds included human [Leu15]-gastrin- […]

human CCK2R [3] = target: T2, human CCK2R; set-up: method as in PMID 32568549; details: cited from earlier work
HEK293-YC3.60 cells = test: FRET-based Ca2+ mobilization assay in HEK293-YC3.60 cells (negative controls devoid of CCK2R); format: cell-based, human; details: HEK293-YC3.60 clone #5
Method: For most biological experiments, HEK293 cells transfected to stably express the human CCK2i4svR splice variant were used, kindly provided by Dr. P. Laverman (Radboud University Nijmegen Medical Center, Nijmegen, The Netherlands) and Prof. M. R. Hellmich (University of Texas Medical Branch, Galveston, TX, USA), while non-transfected wtHEK293 cells served as negative controls. Cells were cultured in DMEM with GlutaMAX-I supplemented with 10% (v/v) fetal bovine serum (FBS), 100 U/mL penicillin and 100 μg/mL streptomycin and kept in a controlled humidified air containing 5% CO2 at 37 °C; the medium for transfected cells was additionally supplemented with 400 μg/mL G418. […]
as §1, with “MeCN. […]” for “MeCN.”
Methods for FRET-based detection of Ca2+ in HEK293 cells were descri bed previ ousl y. […] The human CCK2R (NM_176875) in pCMV6-Entry vector contained the receptor’s complete open reading frame with a Myc-DDK epitope tag (OriGene Technologies; Cat. No. R200676). […]

With `CC(C)(C)C(=O)CN1C(=O)[C@H](NC(=O)Nc2cccc(C(=O)NCCOCCOCCOCCNC(=O)[C@H](CCC(=O)O)NC(=O)CCC(C(=O)O)N3CCN(CC(=O)O)CCN(CC(=O)O)CC3)c2)CN(C2CCCCC2)c2ccccc21` (some centres unmarked) [GAS2, NODAGA-DGlu-HN(PEG3)NH-Z360] as the compound, how does the IC50 [1] read?
Its IC50 is 4.1 ± 1.1 nM.

And the “Concentration threshold for agonistic properties (Ca2+ mobilization)” value (“Concentration threshold” for short) (human CCK2R [2])?
Its value is greater than 100 nM.

For `CC(C)(C)C(=O)CN1C(=O)[C@H](NC(=O)Nc2cccc(C(=O)NCCOCCOCCOCCC(=O)N[C@H](CCC(=O)O)C(=O)N[C@H](CCC(=O)O)C(=O)N[C@H](CCC(=O)O)C(=O)N[C@H](CCC(=O)O)C(=O)N[C@@H](CCCCNC(=O)C(CNCCN)CNCCN)C(=O)O)c2)CN(C2CCCCC2)c2ccccc21` [DGA1, Z360-PEG3-DGlu-DGlu-DGlu-DGu-Lys(N4)−OH] ({X1-CO-3Abz-PEG3}-[dE][dE][dE][dE]K(X2)-OH), which “Functional profile at the CCK2R” value (human CCK2R [3]) is on record?
Its value is “pure antagonist profile”.

With `CC(C)(C)C(=O)CN1C(=O)C(NC(=O)Nc2cccc(C(=O)O)c2)CN(C2CCCCC2)c2ccccc21` (centres unmarked) [Z360] as the compound, how does the IC50 [1] read?
Its IC50 is 1.2 ± 0.5 nM.

And the “Concentration threshold” value (human CCK2R [2])?
The value was greater than 100 nM.

With `CC(C)C[C@H](NC(=O)[C@H](Cc1c[nH]c2ccccc12)NC(=O)CNC(=O)[C@H](Cc1ccc(O)cc1)NC(=O)[C@H](C)NC(=O)[C@H](CCC(=O)O)NC(=O)[C@H](CCC(=O)O)NC(=O)[C@H](CCC(=O)O)NC(=O)[C@H](CCC(=O)O)NC(=O)[C@H](CCC(=O)O)NC(=O)[C@H](CC(C)C)NC(=O)[C@H](Cc1c[nH]c2ccccc12)NC(=O)[C@@H]1CCCN1C(=O)CNC(=O)[C@@H]1CCC(=O)N1)C(=O)N[C@@H](CC(=O)O)C(=O)N[C@@H](Cc1ccccc1)C(N)=O` [[Leu^15]gastrin-17, pGlu-Gly-Pro-Trp-Leu-(Glu)5-Ala-Tyr-Gly-Trp-Leu-Asp-Phe-NH2, reference compound] ([pGlu]GPWLEEEEEAYGWLDF-NH2) as the compound, how does the “Ca2+ response in cells devoid of CCK2R expression” value (HEK293-YC3.60 cells) read?
Its value is “failed to respond”.

What about the “Concentration at which the CCK2R is activated (Ca2+ mobilization)” value (human CCK2R [2]) of the same compound?
The value was 100 pM.

For `CC(C)(C)C(=O)CN1C(=O)[C@H](NC(=O)Nc2cccc(C(=O)NCCOCCOCCOCCNC(=O)[C@H](CCC(=O)O)NC(=O)CCC(C(=O)O)N3CCN(CC(=O)O)CCN(CC(=O)O)CCN(CC(=O)O)CC3)c2)CN(C2CCCCC2)c2ccccc21` (some centres unmarked) [GAS3, DOTAGA-DGlu-HN(PEG3)NH-Z360], which IC50 [1] is on record?
The IC50 was 3.1 ± 1.5 nM.

And the “Concentration threshold” value (human CCK2R [2])?
Its value is greater than 100 nM.

With `CC(C)(C)C(=O)CN1C(=O)[C@H](NC(=O)Nc2cccc(C(=O)NCCOCCOCCOCCNC(=O)[C@H](CCC(=O)O)NC(=O)CN3CCN(CC(=O)O)CCN(CC(=O)O)CCN(CC(=O)O)CC3)c2)CN(C2CCCCC2)c2ccccc21` [GAS1, DOTA-DGlu-HN(PEG3)NH-Z360] as the compound, how does the IC50 [1] read?
The IC50 was 5.9 ± 1.8 nM.

And the “Concentration threshold” value (human CCK2R [2])?
The value was greater than 100 nM.
